{
  "source": "the supplement of paper PMC12076712",
  "test_in_all_cases": "pIC50, kinobeads binding competition",
  "settings_in_all_cases": "cell material: Lysate mix",
  "key": {"[1]": {"target": "UniProt Q13164", "sequence (Q13164 whole entry, looked up)": "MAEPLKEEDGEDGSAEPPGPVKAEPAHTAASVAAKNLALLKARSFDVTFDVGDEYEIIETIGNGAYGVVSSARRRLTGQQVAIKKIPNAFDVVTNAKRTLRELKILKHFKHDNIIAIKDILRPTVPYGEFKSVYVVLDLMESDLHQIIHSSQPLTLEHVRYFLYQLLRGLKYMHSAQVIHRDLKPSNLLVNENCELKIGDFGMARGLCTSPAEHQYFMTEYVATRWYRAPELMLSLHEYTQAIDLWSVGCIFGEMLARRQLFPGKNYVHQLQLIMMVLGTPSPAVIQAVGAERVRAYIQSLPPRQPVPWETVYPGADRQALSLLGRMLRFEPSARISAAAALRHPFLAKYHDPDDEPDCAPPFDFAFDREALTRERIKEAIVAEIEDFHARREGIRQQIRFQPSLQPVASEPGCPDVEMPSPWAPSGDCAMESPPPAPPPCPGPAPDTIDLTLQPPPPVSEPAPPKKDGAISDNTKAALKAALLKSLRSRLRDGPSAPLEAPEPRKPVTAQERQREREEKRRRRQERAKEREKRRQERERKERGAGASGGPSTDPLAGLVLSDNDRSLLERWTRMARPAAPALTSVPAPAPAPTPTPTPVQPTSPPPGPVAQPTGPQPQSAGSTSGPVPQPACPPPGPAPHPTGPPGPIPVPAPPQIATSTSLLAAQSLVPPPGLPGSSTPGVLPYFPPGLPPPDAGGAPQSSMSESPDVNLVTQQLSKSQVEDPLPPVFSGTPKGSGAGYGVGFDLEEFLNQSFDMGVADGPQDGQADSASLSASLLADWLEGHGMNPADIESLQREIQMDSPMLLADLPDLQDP", "how_it_was_run": "(§1)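 Either living Jurkat cells (60 min at 37 °C, then lysis) or lysates (60 min at 4 °C) were treated with nine compound concentrations from a top of 30 μM, in 1:4 steps for cells and 1:5 steps for lysates. The lysates were from Jurkat cells or a 1:1:1:1 mix of HEK293, K-562, HepG2 and placenta. Kinobeads-bound proteins were digested and quantified by TMT10 LC-MS/MS. pIC50 was calculated by logistic dose-response fitting (R drc package) of fold changes relative to vehicle, in biological duplicates.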"}, "[2]": {"target": "UniProt Q05397", "how_it_was_run": "as §1"}, "[3]": {"target": "CDK4 (UniProt P11802)", "sequence (P11802 whole entry)": "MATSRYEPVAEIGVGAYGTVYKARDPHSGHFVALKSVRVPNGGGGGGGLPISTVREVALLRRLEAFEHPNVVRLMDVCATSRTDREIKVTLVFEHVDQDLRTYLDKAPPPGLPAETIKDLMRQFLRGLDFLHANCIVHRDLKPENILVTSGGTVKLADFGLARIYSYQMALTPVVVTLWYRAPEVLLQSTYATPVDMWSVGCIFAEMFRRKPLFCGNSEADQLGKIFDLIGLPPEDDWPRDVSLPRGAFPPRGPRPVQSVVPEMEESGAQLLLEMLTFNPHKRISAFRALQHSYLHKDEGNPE", "how_it_was_run": "as §1"}, "[4]": {"target": "UniProt Q13557", "how_it_was_run": "as §1"}, "[5]": {"target": "UniProt P48729", "how_it_was_run": "as §1"}, "[6]": {"target": "T1, UniProt O14920", "T1 sequence (whole entry)": "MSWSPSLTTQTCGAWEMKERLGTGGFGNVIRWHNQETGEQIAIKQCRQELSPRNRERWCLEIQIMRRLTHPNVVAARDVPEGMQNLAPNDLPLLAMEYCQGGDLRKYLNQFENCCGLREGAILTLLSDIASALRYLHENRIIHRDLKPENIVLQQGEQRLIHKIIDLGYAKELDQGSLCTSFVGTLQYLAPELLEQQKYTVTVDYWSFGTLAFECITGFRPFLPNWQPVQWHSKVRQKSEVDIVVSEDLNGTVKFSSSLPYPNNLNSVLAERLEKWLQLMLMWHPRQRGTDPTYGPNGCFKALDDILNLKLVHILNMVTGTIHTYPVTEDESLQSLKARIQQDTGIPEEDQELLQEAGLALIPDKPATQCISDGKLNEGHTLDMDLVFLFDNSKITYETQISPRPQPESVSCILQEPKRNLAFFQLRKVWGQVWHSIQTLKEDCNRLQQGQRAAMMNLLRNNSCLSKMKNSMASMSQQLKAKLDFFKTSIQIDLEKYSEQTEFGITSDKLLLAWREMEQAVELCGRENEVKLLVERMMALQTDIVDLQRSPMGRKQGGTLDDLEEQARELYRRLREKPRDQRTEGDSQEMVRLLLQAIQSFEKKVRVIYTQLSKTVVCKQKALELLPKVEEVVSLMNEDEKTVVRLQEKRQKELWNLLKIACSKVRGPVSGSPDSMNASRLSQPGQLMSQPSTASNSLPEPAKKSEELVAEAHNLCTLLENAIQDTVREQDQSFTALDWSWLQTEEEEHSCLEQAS", "how_it_was_run": "as §1"}, "[7]": {"target": "UniProt Q13233", "how_it_was_run": "as §1"}, "[8]": {"target": "UniProt P06493", "how_it_was_run": "as §1"}, "[9]": {"target": "UniProt Q15418", "sequence (Q15418 whole entry)": "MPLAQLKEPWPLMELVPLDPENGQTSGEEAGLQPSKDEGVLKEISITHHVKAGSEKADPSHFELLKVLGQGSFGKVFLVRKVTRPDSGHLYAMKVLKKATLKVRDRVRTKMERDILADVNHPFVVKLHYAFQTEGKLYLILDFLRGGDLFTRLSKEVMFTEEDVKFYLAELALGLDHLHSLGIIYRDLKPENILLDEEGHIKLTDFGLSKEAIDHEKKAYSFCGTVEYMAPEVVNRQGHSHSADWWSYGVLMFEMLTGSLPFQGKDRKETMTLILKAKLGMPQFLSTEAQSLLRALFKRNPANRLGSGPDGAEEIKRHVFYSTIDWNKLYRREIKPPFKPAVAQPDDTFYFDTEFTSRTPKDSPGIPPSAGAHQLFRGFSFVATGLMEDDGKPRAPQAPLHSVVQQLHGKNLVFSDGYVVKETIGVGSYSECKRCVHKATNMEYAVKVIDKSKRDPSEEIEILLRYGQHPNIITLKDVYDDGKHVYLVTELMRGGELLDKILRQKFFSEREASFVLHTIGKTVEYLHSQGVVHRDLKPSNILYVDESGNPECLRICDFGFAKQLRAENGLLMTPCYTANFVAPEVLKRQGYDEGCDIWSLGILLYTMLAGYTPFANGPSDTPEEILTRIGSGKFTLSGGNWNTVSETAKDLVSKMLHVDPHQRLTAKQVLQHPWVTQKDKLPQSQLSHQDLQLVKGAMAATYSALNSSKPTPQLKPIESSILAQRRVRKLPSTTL", "how_it_was_run": "as §1"}, "[10]": {"target": "EIF2AK4 (UniProt Q9P2K8)", "sequence (Q9P2K8 whole entry)": "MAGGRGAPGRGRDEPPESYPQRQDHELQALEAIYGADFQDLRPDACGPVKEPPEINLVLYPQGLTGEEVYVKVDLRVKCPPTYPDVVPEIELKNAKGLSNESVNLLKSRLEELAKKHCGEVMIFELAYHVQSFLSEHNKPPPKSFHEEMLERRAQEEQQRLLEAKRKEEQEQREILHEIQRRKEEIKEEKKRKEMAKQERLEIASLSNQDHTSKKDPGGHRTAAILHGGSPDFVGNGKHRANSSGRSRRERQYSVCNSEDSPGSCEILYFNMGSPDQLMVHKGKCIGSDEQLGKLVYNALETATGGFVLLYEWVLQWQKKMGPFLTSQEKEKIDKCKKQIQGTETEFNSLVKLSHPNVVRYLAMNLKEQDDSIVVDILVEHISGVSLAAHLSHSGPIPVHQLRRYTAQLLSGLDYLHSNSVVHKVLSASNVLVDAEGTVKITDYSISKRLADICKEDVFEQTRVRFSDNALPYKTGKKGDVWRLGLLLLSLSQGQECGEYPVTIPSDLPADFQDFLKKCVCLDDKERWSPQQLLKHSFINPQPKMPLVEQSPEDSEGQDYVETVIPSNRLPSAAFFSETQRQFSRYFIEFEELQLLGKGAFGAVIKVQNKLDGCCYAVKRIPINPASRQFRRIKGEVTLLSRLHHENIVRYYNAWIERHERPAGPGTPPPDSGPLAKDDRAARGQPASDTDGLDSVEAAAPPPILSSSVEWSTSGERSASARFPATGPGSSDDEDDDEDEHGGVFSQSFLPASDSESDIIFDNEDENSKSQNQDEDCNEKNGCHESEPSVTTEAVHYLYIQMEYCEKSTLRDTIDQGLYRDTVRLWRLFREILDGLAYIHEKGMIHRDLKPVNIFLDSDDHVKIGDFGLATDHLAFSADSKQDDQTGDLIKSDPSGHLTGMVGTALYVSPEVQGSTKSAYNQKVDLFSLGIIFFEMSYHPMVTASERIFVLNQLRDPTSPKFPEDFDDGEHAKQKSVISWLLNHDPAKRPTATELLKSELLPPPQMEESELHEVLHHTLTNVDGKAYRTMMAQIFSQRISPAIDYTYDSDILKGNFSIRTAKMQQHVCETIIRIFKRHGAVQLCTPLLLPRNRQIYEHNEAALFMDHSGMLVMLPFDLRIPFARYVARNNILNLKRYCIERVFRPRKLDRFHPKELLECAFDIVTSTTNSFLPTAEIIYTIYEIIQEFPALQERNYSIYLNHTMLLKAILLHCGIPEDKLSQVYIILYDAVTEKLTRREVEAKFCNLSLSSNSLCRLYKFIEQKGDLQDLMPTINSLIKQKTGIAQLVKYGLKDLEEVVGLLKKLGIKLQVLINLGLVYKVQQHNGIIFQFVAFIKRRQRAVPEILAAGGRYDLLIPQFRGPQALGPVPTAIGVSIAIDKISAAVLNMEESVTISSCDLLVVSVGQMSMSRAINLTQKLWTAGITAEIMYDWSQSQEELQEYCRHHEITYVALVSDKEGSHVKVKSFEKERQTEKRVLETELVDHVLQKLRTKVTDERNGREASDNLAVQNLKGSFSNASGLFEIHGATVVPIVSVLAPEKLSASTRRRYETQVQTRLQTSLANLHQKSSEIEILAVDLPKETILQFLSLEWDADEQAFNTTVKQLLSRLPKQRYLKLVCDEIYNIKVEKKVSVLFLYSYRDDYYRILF", "how_it_was_run": "as §1"}, "[11]": {"target": "BUB1 (UniProt O43683)", "how_it_was_run": "as §1"}, "[12]": {"target": "CDK6 (UniProt Q00534)", "sequence (Q00534 whole entry)": "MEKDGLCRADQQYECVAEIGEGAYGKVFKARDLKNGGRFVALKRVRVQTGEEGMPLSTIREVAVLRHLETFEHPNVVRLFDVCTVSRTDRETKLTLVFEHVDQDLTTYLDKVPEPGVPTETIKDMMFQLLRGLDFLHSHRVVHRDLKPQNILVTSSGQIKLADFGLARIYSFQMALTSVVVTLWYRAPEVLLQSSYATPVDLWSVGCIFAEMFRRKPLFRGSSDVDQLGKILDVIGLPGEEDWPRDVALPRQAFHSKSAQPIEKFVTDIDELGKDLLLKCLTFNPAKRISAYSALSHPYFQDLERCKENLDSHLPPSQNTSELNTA", "how_it_was_run": "as §1"}, "[13]": {"target": "FGFR1 (UniProt P11362)", "sequence (P11362 whole entry, looked up)": "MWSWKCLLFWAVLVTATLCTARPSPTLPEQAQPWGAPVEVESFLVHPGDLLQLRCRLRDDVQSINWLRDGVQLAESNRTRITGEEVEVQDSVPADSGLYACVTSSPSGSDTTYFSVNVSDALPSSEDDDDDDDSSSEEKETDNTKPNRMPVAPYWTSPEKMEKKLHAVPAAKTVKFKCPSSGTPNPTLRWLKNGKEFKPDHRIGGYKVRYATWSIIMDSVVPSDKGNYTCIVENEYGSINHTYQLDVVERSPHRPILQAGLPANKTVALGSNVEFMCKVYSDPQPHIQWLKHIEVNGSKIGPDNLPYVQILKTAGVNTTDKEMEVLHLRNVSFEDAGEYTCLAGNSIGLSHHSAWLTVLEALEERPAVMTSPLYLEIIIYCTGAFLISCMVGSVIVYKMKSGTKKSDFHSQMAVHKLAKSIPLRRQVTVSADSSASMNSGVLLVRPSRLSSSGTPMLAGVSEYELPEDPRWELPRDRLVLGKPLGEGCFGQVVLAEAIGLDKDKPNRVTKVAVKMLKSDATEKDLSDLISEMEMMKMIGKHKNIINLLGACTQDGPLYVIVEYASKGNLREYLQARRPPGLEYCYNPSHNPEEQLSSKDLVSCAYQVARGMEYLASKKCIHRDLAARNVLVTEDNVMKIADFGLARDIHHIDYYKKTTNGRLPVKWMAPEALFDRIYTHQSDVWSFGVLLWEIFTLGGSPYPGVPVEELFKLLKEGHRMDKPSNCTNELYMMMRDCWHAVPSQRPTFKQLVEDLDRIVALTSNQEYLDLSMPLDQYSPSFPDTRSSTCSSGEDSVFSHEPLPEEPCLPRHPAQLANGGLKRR", "how_it_was_run": "as §1"}, "[14]": {"target": "UniProt P49841", "how_it_was_run": "as §1"}, "[15]": {"target": "UniProt O75716", "sequence (O75716 whole entry)": "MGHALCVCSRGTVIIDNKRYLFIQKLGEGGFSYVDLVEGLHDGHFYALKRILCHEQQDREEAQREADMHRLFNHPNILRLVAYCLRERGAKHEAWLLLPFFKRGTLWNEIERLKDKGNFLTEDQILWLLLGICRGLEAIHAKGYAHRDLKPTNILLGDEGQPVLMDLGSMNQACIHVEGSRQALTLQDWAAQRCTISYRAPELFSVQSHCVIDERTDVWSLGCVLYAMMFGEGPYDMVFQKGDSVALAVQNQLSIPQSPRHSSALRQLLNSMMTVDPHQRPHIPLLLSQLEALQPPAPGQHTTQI", "how_it_was_run": "as §1"}, "[16]": {"target": "T2, UniProt O14757", "T2 sequence (whole entry)": "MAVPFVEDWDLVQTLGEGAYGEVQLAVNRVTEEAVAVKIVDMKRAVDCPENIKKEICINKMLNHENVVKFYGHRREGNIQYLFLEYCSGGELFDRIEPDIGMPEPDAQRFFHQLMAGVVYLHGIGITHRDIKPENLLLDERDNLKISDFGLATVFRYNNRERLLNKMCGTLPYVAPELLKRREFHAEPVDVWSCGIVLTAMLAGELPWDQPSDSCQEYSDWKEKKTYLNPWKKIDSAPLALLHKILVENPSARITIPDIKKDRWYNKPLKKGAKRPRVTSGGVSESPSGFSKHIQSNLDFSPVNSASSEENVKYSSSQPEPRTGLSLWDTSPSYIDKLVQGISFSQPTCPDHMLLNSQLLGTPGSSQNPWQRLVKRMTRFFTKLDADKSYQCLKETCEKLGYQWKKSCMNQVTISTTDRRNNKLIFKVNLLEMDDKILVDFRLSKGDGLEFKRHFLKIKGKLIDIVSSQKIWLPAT", "how_it_was_run": "as §1"}, "[17]": {"target": "STK39 (UniProt Q9UEW8)", "how_it_was_run": "as §1"}, "[18]": {"target": "TGFBR2 (UniProt P37173)", "how_it_was_run": "as §1"}, "[19]": {"target": "UniProt Q92918", "how_it_was_run": "as §1"}, "[20]": {"target": "T3, UniProt Q13188", "T3 sequence (whole entry)": "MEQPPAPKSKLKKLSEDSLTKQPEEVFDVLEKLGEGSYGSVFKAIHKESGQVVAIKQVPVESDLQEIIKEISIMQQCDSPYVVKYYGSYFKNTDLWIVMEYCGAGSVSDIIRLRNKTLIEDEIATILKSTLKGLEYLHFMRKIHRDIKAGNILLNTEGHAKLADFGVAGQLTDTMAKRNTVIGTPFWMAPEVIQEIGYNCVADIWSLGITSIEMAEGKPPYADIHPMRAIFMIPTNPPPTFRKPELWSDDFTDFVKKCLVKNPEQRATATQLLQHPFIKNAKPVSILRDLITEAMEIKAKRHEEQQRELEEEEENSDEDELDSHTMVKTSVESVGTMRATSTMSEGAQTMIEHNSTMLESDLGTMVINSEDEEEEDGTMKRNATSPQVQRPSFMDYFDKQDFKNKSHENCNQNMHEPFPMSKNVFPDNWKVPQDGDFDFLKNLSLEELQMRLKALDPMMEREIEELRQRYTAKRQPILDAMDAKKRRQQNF", "how_it_was_run": "as §1"}},
  "data": [
    {"molecule": "CCNC(=O)c1cc(Nc2cc(C)[nH]n2)nc(N2CCN(Cc3ccc(S(=O)(=O)F)cc3)CC2)n1", "values": [
      {"measurement": "pIC50", "setting": "[1]", "value": 4.6},
      {"measurement": "pIC50", "setting": "[2]", "value": "< 4.52"},
      {"measurement": "pIC50", "setting": "[3]", "value": "< 4.52"},
      {"measurement": "pIC50", "setting": "[4]", "value": "< 4.52"},
      {"measurement": "pIC50", "setting": "[5]", "value": "< 4.52"},
      {"measurement": "pIC50", "setting": "[6]", "value": "< 4.52"},
      {"measurement": "pIC50", "setting": "[7]", "value": "< 4.52"},
      {"measurement": "pIC50", "setting": "[8]", "value": "< 4.52"},
      {"measurement": "pIC50", "setting": "[9]", "value": 5.04},
      {"measurement": "pIC50", "setting": "[10]", "value": 4.98},
      {"measurement": "pIC50", "setting": "[11]", "value": "< 4.52"},
      {"measurement": "pIC50", "setting": "[12]", "value": 5.22},
      {"measurement": "pIC50", "setting": "[13]", "value": "< 4.52"},
      {"measurement": "pIC50", "setting": "[14]", "value": "< 4.52"},
      {"measurement": "pIC50", "setting": "[15]", "value": 4.87},
      {"measurement": "pIC50", "setting": "[16]", "value": "< 4.52"},
      {"measurement": "pIC50", "setting": "[17]", "value": 4.66},
      {"measurement": "pIC50", "setting": "[18]", "value": "< 4.52"},
      {"measurement": "pIC50", "setting": "[19]", "value": 4.78},
      {"measurement": "pIC50", "setting": "[20]", "value": 5.64}
    ]}
  ]
}
